From patent US6376506B1, “Sulfamide-metalloprotease inhibitors” (Syntex (U.S.A.) LLC, priority 1997, dated 2002)

How the values were obtained:
[1] = system: bovine nasal cartilage plugs implanted subcutaneously in female Lewis rats; test: Cartilage plug degradation in vivo (cartilage plug implant assay, hydroxyproline content); design: species or system rat; conditions: 8 or 9 days, hydroxyproline content relative to vehicle group
[2] = system: collagen matrix of bovine cartilage explants; test: Degradation of cartilage plug in vitro (IL-1 stimulated cartilage explant, hydroxyproline content); format: cell-based; conditions: IL-1-α stimulated bovine cartilage explants, 21 days, hydroxyproline content relative to control; compounds at 10 to 300 nm
Procedure: The ability of the compounds of this invention to inhibit the degradation of the collagen matrix (as judged by release of hydroxyproline) was determined by the cartilage plug degradation assay in vitro by following a slight modification of the method described in Spirito, S., Doughty, E., et al., “Metalloproteinase inhibitors halt collagen breakdown in IL-1 induced bovine nasal cartilage cultures” Inflamm. Res., 44, Supp. 2: S131—S132, (1995).
Cartilage explants prepared from freshly sacrificed bovine knee joints were added to the culture medium (Dubelco's modified eagle medium, Gibco # 21063-001, Gibco BRL Products, Gaithersburg, Md.), without phenol red, but with HEPES, and L-glutamine and fungizone 2.5 μg/ml, gentamicin 50 μg/ml, penicillin 100 U/ml, and streptomycin 100 μg/ml). The cultures were stimulated with IL-1-α at a final concentration of 20 ng/ml. Compounds of Formula (I), were added at concentrations between 10 and 300 nm in DMSO. The control samples contained only L-1-α. The cultures were incubated at 37° C. in an atmosphere of air with 6% CO2 for 21 days during which time the medium was changed twice/week. The cartilage plugs were removed, hydrolyzed and the hydroxyproline content was determined. The MMP inhibitory activity of test materials is the measure of the hydroxyproline content in the test group relative to the vehicle treated group (control group).

[3] = target: T1, human collagenase-1 catalytic domain (Homo sapiens, UniProt P03956); test: MMP inhibition in vitro, human collagenase-1; format: biochemical; conditions: MCA-Pro-Leu-Gly-Leu-DPA-Ala-Arg-NH2 hydrolysis at 37° C.; read-out: Collagenase-I IC50
T1 construct: the collagenase-1 catalytic domain was released by treatment with 1 mM of aminophenylmercuric acetate (APMA); ubiquitin (cleaved yes); made in house; host or cells: E. coli
T1 sequence (P03956 100-269 limits assumed): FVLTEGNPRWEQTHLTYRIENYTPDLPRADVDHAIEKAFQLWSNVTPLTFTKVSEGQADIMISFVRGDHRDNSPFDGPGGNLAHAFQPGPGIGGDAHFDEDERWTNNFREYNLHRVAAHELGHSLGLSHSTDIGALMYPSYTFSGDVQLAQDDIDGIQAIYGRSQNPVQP
Procedure: The catalytic domain of human collagenase-1 was expressed as a fusion protein with ubiquitin in E. Coli as described in Gehring, E. R. et al., J. Biol. Chem., 270, 22507, (1995). After purification of the fusion protein, the collagenase-1 catalytic domain was released by treatment with 1 mM of aminophenylmercuric acetate (APMA) for 1 hour at 37° C. and then purified by zinc chelate chromatography.
(§1) The matrix metalloprotease inhibitory activity of compounds of this invention in vitro was determined based on the hydrolysis of MCA-Pro-Leu-Gly-Leu-DPA-Ala-Arg-NH2 (Bachem, Inc.) at 37° C. as described in Knight, C. G., et al., FEBS Lett., 296, 263-266 (1992).
(§2) The matrix metalloprotease enzyme was diluted with assay buffer (50 mM Tricine pH 7.5, 200 mM NaCl, 10 mM CaCl2, and 0.005% Brij-35) containing 10 μmole of above substrate dissolved in DMSO. Compounds of the invention dissolved in DMSO or only DMSO (control samples) were added such that the final DMSO concentration in all assays was 2.5%. The fluorescence changes were monitored with a Perkin-Elmer LS-50B flourimeter using an excitation wavelength of 328 nm and an emission wavelength of 393 nm.

[4] = target: T2, human collagenase-3 catalytic domain (Homo sapiens, UniProt P45452); test: MMP inhibition in vitro, human collagenase-3; format: biochemical; conditions: MCA-Pro-Leu-Gly-Leu-DPA-Ala-Arg-NH2 hydrolysis at 37° C.; read-out: Collagenase-III IC50
T2 construct: After purification, the catalytic domain was released by treatment with 1 mM APMA for 1 hour at 37° C; ubiquitin (N, cleaved yes); made in house; host or cells: E. coli
Procedure: The propeptide and catalytic domain portion of human collagcenase-3 was expressed in E. Coli as an N-terminal fusion protein with ubiquitin. After purification, the catalytic domain was released by treatment with 1 mM APMA for 1 hour at 37° C., and then purified by zinc chelate chromatography.
as §1, §2

[5] = system: Human Monomac 6 cells; test: Inhibition of TNF release in vitro assay (LPS/PMA stimulated); format: cell-based; conditions: Conc. 2 μM, LPS/PMA stimulated Monomac 6 cells, 2 h
Procedure: The activity of compounds of this invention in inhibiting the TNF release was determined, using the a minor modification of the method described in Pradines-Figueres, A. and Raetz, C. R. H., J. Biol. Chem., 267 (32), 23261, (1992).
Human Monomac 6 cells (Ziegler-Heitbrock, H. W. L., et al., Int. J. Cancer, 41, 456, (1988)) were cultured at 37° C. in RPMI 1640 medium containing 10% fetal calf serum to a density of 1×10^5 cells/ml. 0.23 ml of these cells were placed in each well of a tissue culture plate and the cells were incubated for 15 min. The test compounds were dissolved in above mentioned medium and added and the incubation was continued for an additional 15 min. 10 μl of an lipopolysaccharide/phorbol-12-myristate-13-acetate (LPS/PMA) mixture was added such that the final concentration of lipopolysaccharide was 10 ng/ml and the final concentration of phorbol-12-myristate-13-acetate was 30 ng/ml. The cells were incubated for 2 h after which the plate was centrifuged and the medium was removed and analyzed for TNF content. The analysis was performed using a TNF Quantikine® Immunoassay (R & D Systems, Minneapolis, Minn. 55413) by following the manufacturer's protocol.

[6] = system: TNF-α; test: Inhibition of LPS induced TNF-α production in mice in vivo assay; conditions: female Balb/c mice, compound subcutaneously 1 h before LPS i.p., serum TNF-α 1.5 h after LPS
Procedure: The activity of compounds of this invention in inhibiting the TNF-α release was determined using a minor modification of the methods described in Zanetti, G.; Heumann, D., et. al., “Cytokine production after intravenous or peritoneal Gram-negative bacterial challenge in mice” J. Immunol., 148, 1890, (1992) and Sekut, L., Menius, J. A., et. al., “Evaluation if the significance of related levels of systemic and localized tumor necrosis factor in different animal models of inflammation” J. Lab. Clin. Med., 124, 813, (1994).
Female Balb/c mice were anesthetized and injected subcutaneously with the test compounds dissolved in CMC vehicle or hydroxypropylmethyl cellulose based vehicle. Control animals received only the vehicle. After 1 h, LPS (50 μg/mouse, Sigma #13129, Sigma Chemical Co., St. Louis, Mo.) was injected intraperitoneally. After 1.5 h, blood was collected from the retro-orbital plexus region of the animals in a microtainer serum separator tube (Becton Dickinson, Cat. No. #5960, Becton Dickinson & Co., Franklin Lakes, N.J.). The sera was separated and the amount of TNF-α was determined using the EM-TNFA® kit (Endogen, Woburn, Mass.) by following the manufacturer's protocol.

Molecule | melting point | % protection [1] | % protection [2] | IC50 [3] | IC50 [4] | % inhibition [5] | % inhibition [6]
CC(C)[C@@H](NS(=O)(=O)N1CCC(Oc2ccc(Cl)cn2)CC1)C(=O)NO [compound 100, N-hydroxy-2-(R)-{[4-(5-chloropyridin-2-yloxy)piperidine-1-sulfonyl]amino}-3-methylbutyramide] | 97 to 98.4 °C | 40% | 68% | – | – | – | –
O=C(c1ccc(Cl)cc1)C1CCN(S(=O)(=O)N2CCCC[C@@H]2C(=O)NO)CC1 [compound 242] | 84.4 to 86.4 °C | – | – | 67 nM | 0.063 nM | – | –
O=C(NO)[C@H](CSCc1ccccc1)NS(=O)(=O)N1CCN(c2ccc(Cl)cn2)CC1 [compound 102] | 86 to 86.7 °C | – | – | 338 nM | 0.92 nM | – | –
C[C@@H](NS(=O)(=O)N1CC=C(c2ccc(Cl)cc2)CC1)C(=O)NO [compound 401] | 90.7 to 93 °C | – | – | 250 nM | 0.19 nM | – | –
CC(C)[C@H](C(=O)NO)N(Cc1ccccc1)S(=O)(=O)N1CCCCC1 [compound 1, N-hydroxy-2-(R)-[benzyl-(piperdine-1-sulfonyl)amino]-3-methybutyramide] | 80.6 to 85.7 °C | – | – | 550 nM | 660 nM | – | –
CC(C)[C@@H](NS(=O)(=O)N1CCN(c2ccc(Cl)cn2)CC1)C(=O)NO [compound 50, N-hydroxy-2-(R)-{[4-(5-chloropyridin-2yl)piperazine-1-sulfonyl]amino}-3-methylbutyramide] | 146.7 to 147 °C | – | – | 220 nM | 1.3 nM | – | –
CC(C)[C@@H](NS(=O)(=O)N1CCC(c2nc(-c3ccccc3)c[nH]2)CC1)C(=O)NO [compound 133] | 141 to 142.3 °C | – | – | 20000 nM | 18 nM | – | –
O=C(NO)C1(NS(=O)(=O)N2CCN(c3ccc(Cl)cc3)CC2)CCCCC1 [compound 345, N-hydroxy-1-{[4-(4-chlorophenyl)piperazine-1-sulfonyl]amino}-cyclohexane-1-carboxamide] | 146.1 to 146.6 °C | – | – | 530 nM | 6.6 nM | – | –
CC(C)[C@@H](NS(=O)(=O)N1CCN(c2ccc(Cl)cc2)CC1)C(=O)NO [compound 51, N-hydroxy-2-(R)-{[4-(4-chlorophenyl)piperazine-1-sulfonyl]amino}-3-methylbutyramide] | 154.1 to 154.8 °C | – | – | 490 nM | 2.6 nM | – | –
O=C(NO)C1CCCCN1S(=O)(=O)N1CCC(c2c[nH]c3cc(Cl)ccc23)CC1 (racemic) [compound 256] | 143 to 151 °C | – | – | 26000 nM | 33 nM | – | –
N-hydroxy-1-[4-(4,5,6,7-tetrafluoroindol-3-yl)piperazine-1-sulfonyl]piperidine-2-(RS)-carboxamide [compound 299] | – | – | – | > 50000 nM | 410 nM | 90% | 52%
CN(C)C(=O)N1CCN(S(=O)(=O)N2CCC(c3c[nH]c4c(F)c(F)c(F)c(F)c34)CC2)[C@@H](C(=O)NO)C1 [compound 309] | 181 to 184 °C | – | – | > 50000 nM | 500 nM | – | –
N-hydroxy-4-(morpholine-4-ylcarbonyl)piperazine-1-sulfonyl]-4-(S)-hydroxypiperidine-2-(R)-carboxamide [compound 321] | – | – | – | – | – | 93% | 50%
CC(C)[C@@H](NS(=O)(=O)N1CCC(Oc2ccc(F)cc2)CC1)C(=O)NO [compound 179] | 74.3 to 75.3 °C | – | – | 23 nM | 0.073 nM | – | –
O=C(NO)C1CCCCN1S(=O)(=O)N1CCC(c2noc3cc(F)ccc23)CC1 (racemic) [compound 286] | 145.8 to 146.9 °C | – | – | 29 nM | 0.063 nM | – | –
CC(C)[C@@H](NS(=O)(=O)N1CCC(Oc2ccc(Cl)cc2)CC1)C(=O)NO [compound 59, N-hydroxy-2-(R)-{[4-(4-chlorophenoxy)piperidine-1-sulfonyl]amino}-3-methylbutyramide] | 139.2 to 139.6 °C | 58% | 54% | 110 nM | 0.18 nM | – | –
CC(C)[C@@H](NS(=O)(=O)N1CCN(c2ccc(OCc3ccccc3)cc2)CC1)C(=O)NO [compound 74, N-hydroxy-2-(R)-{[4-(4-benzyloxyphenyl)piperazine-1-sulfonyl]amino}-3-methylbutyramide] | 149 to 156 °C | – | – | 7600 nM | 0.73 nM | – | –
